For experiment [1], the target named is P2Y purinoceptor 1 (Homo sapiens, UniProt P47900). As to the kind of experiment: pA2 value was evaluated against P2Y purinoceptor 1. To be noted: read-out: pA2 (converted).
Experiment [2] addresses P2X purinoceptor 1 (Rattus norvegicus) (UniProt P47824). The experiment in a line: Affinity at P2X purinoceptor 1 (P2X1) and the value is expressed as IC50.
Experiment [3] addresses P2X purinoceptor 4 (Rattus norvegicus) (UniProt P51577). The experiment in a line: KB value was evaluated at the rat P2X purinoceptor 4 (P2X4); IA menas inactive.
In experiment [4] the target is P2X purinoceptor 2 (Rattus norvegicus) (UniProt P49653). The experiment in a line: KB value was evaluated at the rat P2X purinoceptor 2 (P2X2); IA menas inactive.
Sequence of P2X purinoceptor 2 (Rattus norvegicus) (P49653 whole entry, looked up): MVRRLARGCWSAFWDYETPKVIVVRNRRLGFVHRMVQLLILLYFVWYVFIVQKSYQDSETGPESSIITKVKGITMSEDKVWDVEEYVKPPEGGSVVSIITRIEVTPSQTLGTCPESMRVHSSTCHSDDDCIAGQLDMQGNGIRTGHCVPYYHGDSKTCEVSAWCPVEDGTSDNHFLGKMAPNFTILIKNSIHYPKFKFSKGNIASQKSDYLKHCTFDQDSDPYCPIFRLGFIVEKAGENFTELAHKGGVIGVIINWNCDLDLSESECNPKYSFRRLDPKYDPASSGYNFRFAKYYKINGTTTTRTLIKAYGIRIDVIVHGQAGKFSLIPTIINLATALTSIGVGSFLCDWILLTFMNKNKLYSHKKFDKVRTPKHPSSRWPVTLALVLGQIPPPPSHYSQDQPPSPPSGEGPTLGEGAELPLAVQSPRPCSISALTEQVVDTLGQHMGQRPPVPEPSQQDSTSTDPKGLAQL
The species entered for experiment [5] is Homo sapiens. The experiment in a line: Inhibitory concentration required to inhibit intracellular [Ca2+] rise induced in washed human platelets by 5 uM ADP. The class given is functional.

Consider two compounds from ChEMBL document CHEMBL1135726, “Novel antagonists acting at the P2Y(1) purinergic receptor: synthesis and conformational analysis using potentiometric and nuclear magnetic resonance titration techniques” (J Med Chem, 2002).

The source made the active and inactive calls. The calls are words filed in the database; no cut-off is given here.

Sequence of P2Y purinoceptor 1 (P47900 whole entry): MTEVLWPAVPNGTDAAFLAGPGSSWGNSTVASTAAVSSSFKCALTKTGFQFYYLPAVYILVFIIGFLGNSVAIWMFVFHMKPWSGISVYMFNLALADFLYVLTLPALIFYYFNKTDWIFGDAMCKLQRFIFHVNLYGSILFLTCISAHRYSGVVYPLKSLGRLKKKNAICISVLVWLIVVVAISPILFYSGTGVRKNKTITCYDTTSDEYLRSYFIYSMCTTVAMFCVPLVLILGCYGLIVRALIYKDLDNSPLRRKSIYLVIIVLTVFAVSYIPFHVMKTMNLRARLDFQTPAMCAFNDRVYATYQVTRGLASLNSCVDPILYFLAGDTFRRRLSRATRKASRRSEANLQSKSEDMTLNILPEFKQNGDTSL
Sequence of P2X purinoceptor 4 (Rattus norvegicus) (P51577 whole entry, looked up): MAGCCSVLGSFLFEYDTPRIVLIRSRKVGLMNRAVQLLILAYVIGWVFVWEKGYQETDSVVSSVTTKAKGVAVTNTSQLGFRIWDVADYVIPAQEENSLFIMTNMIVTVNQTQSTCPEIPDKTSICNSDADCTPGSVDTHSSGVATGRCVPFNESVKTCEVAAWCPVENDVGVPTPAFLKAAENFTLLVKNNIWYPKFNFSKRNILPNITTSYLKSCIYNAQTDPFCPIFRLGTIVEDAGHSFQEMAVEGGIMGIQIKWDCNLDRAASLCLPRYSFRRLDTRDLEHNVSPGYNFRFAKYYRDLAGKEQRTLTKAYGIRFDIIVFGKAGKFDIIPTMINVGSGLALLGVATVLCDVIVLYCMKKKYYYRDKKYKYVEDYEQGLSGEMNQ
Sequence of P2X purinoceptor 1 (Rattus norvegicus) (P47824 whole entry, looked up): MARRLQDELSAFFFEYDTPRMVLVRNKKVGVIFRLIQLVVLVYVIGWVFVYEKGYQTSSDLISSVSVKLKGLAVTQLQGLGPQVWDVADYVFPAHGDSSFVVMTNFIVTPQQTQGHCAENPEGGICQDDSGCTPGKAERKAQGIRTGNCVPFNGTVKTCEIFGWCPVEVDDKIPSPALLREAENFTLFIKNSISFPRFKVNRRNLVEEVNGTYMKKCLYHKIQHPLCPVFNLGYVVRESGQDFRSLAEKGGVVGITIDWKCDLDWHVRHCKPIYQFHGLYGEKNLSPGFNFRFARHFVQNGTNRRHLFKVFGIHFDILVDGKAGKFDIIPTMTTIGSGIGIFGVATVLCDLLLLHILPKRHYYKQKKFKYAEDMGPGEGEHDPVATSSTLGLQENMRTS

In general, IC50 refers to the midpoint of a concentration-inhibition curve. The low end stands for greater potency in that assay, the high end for weaker potency in that assay. For `CNc1ncnc2c1ncn2[C@H]1C[C@H](OP(=O)(O)O)[C@@H](COP(=O)(O)O)O1`, the Kb in experiment [1] is 282 nM. In experiment [2], half-maximal inhibition (IC50) was put at 1150 nM. Further, the IA result in experiment [3] and in experiment [4] was “inactive” each time.
For `CNc1nc(C)nc2c1ncn2[C@H]1C[C@H](OP(=O)(O)O)[C@@H](COP(=O)(O)O)O1`, the Kb in experiment [1] was 77.6 nM. This compound returned an Inhibition in experiment [5] of 100 µM.
